The values that follow come from paper PMC10962542, “Inhibition of Aurora‐A/N‐Myc Protein–Protein Interaction Using Peptidomimetics: Understanding the Role of Peptide Cyclization” (Chembiochem, 2023).

Series [1] concerns the target T1, N‐Myc/Aurora‐A interaction (Aurora‐A122‐403‐C290A/C393A) (Homo sapiens, UniProt O14965, C290A/C393A).
T1 construct: Aurora‐A 122‐403‐C290A/C393A protein was produced as described previously; made in house
T1 sequence (O14965 122-403 C290A/C393A): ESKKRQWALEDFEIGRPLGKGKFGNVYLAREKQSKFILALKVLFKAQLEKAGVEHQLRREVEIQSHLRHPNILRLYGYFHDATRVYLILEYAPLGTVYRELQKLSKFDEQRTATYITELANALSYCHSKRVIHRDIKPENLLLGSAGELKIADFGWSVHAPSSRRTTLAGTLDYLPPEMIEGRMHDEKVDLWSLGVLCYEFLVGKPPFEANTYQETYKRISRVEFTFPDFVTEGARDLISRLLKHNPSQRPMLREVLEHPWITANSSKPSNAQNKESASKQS
As to the kind of experiment: competition fluorescence anisotropy (FA) assay against fluorescein labelled N‐Myc61‐89. Note: equilibrated 2 h at room temperature. The following applies: SD. Type of series: binding. On the procedure:
Fluorescence anisotropy (FA) assays: All assays were performed using 384‐well plates (Greiner Bio‐one, UK). […] All samples were prepared in 25 mM Tris, 150 mM NaCl, 5 mM MgCl2, pH 7.5, and tested in triplicate using an EnVisionTM 2103 MultiLabel plate reader (Perkin Elmer; Waltham, MA, USA). The parameters were set as follows: Excitation wavelength=480 nm (30 nm bandwidth) and emission wavelength=535 nm (30 nm bandwidth). Measured data were processed and analysed as previously described.[31] Specifically, the perpendicular intensity (P) and parallel intensity (S) were subtracted by the control values and used for calculations of intensity and anisotropy using the following Equations 1, 2, 3, 4, and 5: (1) I=2PG+S (2) r=S-PG (3) Lb=r-rmin/λrmax-r+r-rmin (4) [drawing 1] (5) y=rmax+rmin-rmax/1+(x/x0)^p
For competition FA assays, the average anisotropy and the average standard deviation of the values derived from equation (2) were calculated and fit to a sigmoidal logistic model (equation (5)) using Origin 2021. […] Results are reported as IC50±SD, with data points representing the mean of three replicates and error bars indicating the corresponding SD. Where applicable, ΔΔG was determined as follows: ΔΔG=−RT ln (ΔIC50).
For orientation: Polarisation of emitted light reports the rotation of a fluorescent probe.

The nature of series [2]: circular dichroism (CD) spectroscopy. Type of series: physicochemical. The following applies: 150 mM NaCl, 5 mM MgCl2, pH 7.5, 5 °C, n=2, free‐thiol (red) samples with 5 mol equivalents TCEP. The procedure:
Circular dichroism (CD): All samples were prepared in Tris buffer (25 mM Tris, 150 mM NaCl, 5 mM MgCl2, pH 7.5) with the exception of free sulfhydryl peptides, to which Tris(2‐carboxyethyl)phosphine (TCEP; 5 mol eq. relative to the peptide) was added. CD spectra were recorded using an APP Chirascan CD spectropolarimeter and 1 mm pathlength quartz cuvettes. Sample concentrations were typically 30–120 μM, as determined by UV−V absorption based on a tryptophan extinction coefficient of 5600 M^−1 cm^−1 and, for mal‐constrained variants, a maleimide coefficient of 1700 M^−1 cm^−1.[16, 32] […] Spectra were recorded in duplicate at 5 °C, over wavelengths ranging from 290 to 180 nm, with data collected every 1 nm (1 nm s^−1). A background spectrum for CD buffer alone was also recorded and background ellipticity values were subtracted from raw sample ellipticity values (θ) when calculating mean residue ellipticities (MREs) using Equation 6: (6) MRE=(θλ-θ0)xMw/nxlxc
Where [θ]λ is the observed ellipticity at a given wavelength λ in mdeg, [θ]0 is the ellipticity observed for the buffer, Mw =molar weight of the peptide in g mol^−1, n=number of residues; c=sample concentration (mg mL^−1); l=pathlength of the cuvette in mm. Estimates of peptide % helicity were made using Equation 7, [33] (7) %helicity=(MRE222-MREcoil)x100/-425001-3/n
where MRE222 is the MRE value at 222 nm, MREcoil=640‐45T (with T in °C)=415 deg cm^2 dmol^−1 res^−1 at 5 °C, and n is the number of backbone amide bonds including the N‐terminal acetyl.
A general note: CD spectra are sensitive to the conformation of chiral molecules.

*1 amine or outer side, *2 acyl side, *3 side chain or, on linkers, in order; H or OH if unused. Where a SMILES comes first, the peptide text is derived from it. Bridges are numbered along the chain shown (N, C = ends). Maleimide(3,4-diyl) = O=C1NC(=O)C([*:2])=C1[*:1]

For the compound `CSCC[C@@H]1NC(=O)[C@@H](NC(=O)[C@@H](NC(=O)[C@@H](NC(=O)[C@H](Cc2c[nH]c3ccccc23)NC(=O)[C@H](CO)NC(=O)[C@@H]2CCCN2C(=O)[C@@H]2CCCN2C(=O)[C@H](CCC(=O)O)NC(=O)[C@H](CO)NC(=O)[C@H](CO)NC(=O)[C@H](Cc2c[nH]cn2)NC(=O)[C@H](CCC(=O)O)NC(=O)[C@H](C)NC(=O)[C@H](Cc2ccccc2)NC(=O)CNC(=O)[C@H](CCCNC(=N)N)NC(=O)[C@H](CO)NC(=O)[C@@H]2CCCN2C(=O)[C@H](CO)NC(=O)[C@H](CC(C)C)NC(C)=O)C(C)C)[C@@H](C)O)CSC2=C(SC[C@@H](C(=O)N[C@@H](CC(N)=O)C(=O)N[C@@H](CCC(=O)O)C(=O)N[C@@H](CC(C)C)C(=O)N[C@@H](Cc3c[nH]c4ccccc34)C(=O)NCC(N)=O)NC(=O)[C@H](CC(C)C)NC(=O)[C@H](CC(C)C)NC1=O)C(=O)NC2=O` [N-Myc 61-89 E80C/E84C mal] (Ac-LSPSRGFAEHSSEPPSWVTCMLLCNELWG-NH2; linker 20-24 via Maleimide(3,4-diyl)), the IC50 (as a rule, the concentration at which inhibition is half-maximal) in series [1] stood at 86 ± 7 µM. Still for that read-out and setting: the same measure for `CSCC[C@H](NC(=O)[C@H](CCC(=O)O)NC(=O)[C@@H](NC(=O)[C@@H](NC(=O)[C@H](Cc1c[nH]c2ccccc12)NC(=O)[C@H](CO)NC(=O)[C@@H]1CCCN1C(=O)[C@@H]1CCCN1C(=O)[C@H](CCC(=O)O)NC(=O)[C@H](CO)NC(=O)[C@H](CO)NC(=O)[C@H](Cc1c[nH]cn1)NC(=O)[C@H](CCC(=O)O)NC(=O)[C@H](C)NC(=O)[C@H](Cc1ccccc1)NC(=O)CNC(=O)[C@H](CCCNC(=N)N)NC(=O)[C@H](CO)NC(=O)[C@@H]1CCCN1C(=O)[C@H](CO)NC(=O)[C@H](CC(C)C)NC(C)=O)C(C)C)[C@@H](C)O)C(=O)N[C@H]1CSC2=C(SC[C@@H](C(=O)N[C@@H](CC(C)C)C(=O)N[C@@H](Cc3c[nH]c4ccccc34)C(=O)NCC(N)=O)NC(=O)[C@H](CC(N)=O)NC(=O)[C@H](CCC(=O)O)NC(=O)[C@H](CC(C)C)NC1=O)C(=O)NC2=O` [N-Myc 61-89 L82C/E86C mal] (Ac-LSPSRGFAEHSSEPPSWVTEMCLENCLWG-NH2; linker 22-26 via Maleimide(3,4-diyl)): 69 ± 18 µM; for `CC(=O)N[C@@H](CC(C)C)C(=O)N[C@@H](CO)C(=O)N1CCC[C@H]1C(=O)N[C@@H](CO)C(=O)N[C@@H](CCCNC(=N)N)C(=O)NCC(=O)N[C@@H](Cc1ccccc1)C(=O)N[C@@H](C)C(=O)N[C@@H](CCC(=O)O)C(=O)N[C@@H](Cc1c[nH]cn1)C(=O)N[C@@H](CO)C(=O)N[C@@H](CO)C(=O)N[C@@H](CCC(=O)O)C(=O)N1CCC[C@H]1C(=O)N1CCC[C@H]1C(=O)N[C@@H](CO)C(=O)N[C@@H](Cc1c[nH]c2ccccc12)C(=O)N[C@H](C(=O)N[C@H](C(=O)N[C@@H](CCC(=O)O)C(=O)N[C@H]1CSC2=C(SC[C@@H](C(=O)N[C@@H](CCC(=O)O)C(=O)N[C@@H](CC(C)C)C(=O)N[C@@H](Cc3c[nH]c4ccccc34)C(=O)NCC(N)=O)NC(=O)[C@H](CCC(=O)O)NC(=O)[C@H](CC(C)C)NC(=O)[C@H](CC(C)C)NC1=O)C(=O)NC2=O)[C@@H](C)O)C(C)C` [N-Myc 61-89 M81C/N85C mal] (Ac-LSPSRGFAEHSSEPPSWVTECLLECELWG-NH2; linker 21-25 via Maleimide(3,4-diyl)): 133 ± 3 µM; for `CSCC[C@H](NC(=O)[C@@H]1CSC2=C(SC[C@H](NC(=O)[C@@H]3CCCN3C(=O)[C@@H]3CCCN3C(=O)[C@H](CCC(=O)O)NC(=O)[C@H](CO)NC(=O)[C@H](CO)NC(=O)[C@H](Cc3c[nH]cn3)NC(=O)[C@H](CCC(=O)O)NC(=O)[C@H](C)NC(=O)[C@H](Cc3ccccc3)NC(=O)CNC(=O)[C@H](CCCNC(=N)N)NC(=O)[C@H](CO)NC(=O)[C@@H]3CCCN3C(=O)[C@H](CO)NC(=O)[C@H](CC(C)C)NC(C)=O)C(=O)N[C@@H](Cc3c[nH]c4ccccc34)C(=O)N[C@@H](C(C)C)C(=O)N[C@@H]([C@@H](C)O)C(=O)N1)C(=O)NC2=O)C(=O)N[C@@H](CC(C)C)C(=O)N[C@@H](CC(C)C)C(=O)N[C@@H](CCC(=O)O)C(=O)N[C@@H](CC(N)=O)C(=O)N[C@@H](CCC(=O)O)C(=O)N[C@@H](CC(C)C)C(=O)N[C@@H](Cc1c[nH]c2ccccc12)C(=O)NCC(N)=O` [N-Myc 61-89 S76C/E80 mal] (Ac-LSPSRGFAEHSSEPPCWVTCMLLENELWG-NH2; linker 16-20 via Maleimide(3,4-diyl)): 147 ± 13 µM. Still for that read-out and setting: the same measure for `CSCC[C@@H]1NC(=O)[C@H](CCC(=O)O)NC(=O)[C@@H](NC(=O)[C@@H](NC(=O)[C@H](Cc2c[nH]c3ccccc23)NC(=O)[C@H](CO)NC(=O)[C@@H]2CCCN2C(=O)[C@@H]2CCCN2C(=O)[C@H](CCC(=O)O)NC(=O)[C@H](CO)NC(=O)[C@H](CO)NC(=O)[C@H](Cc2c[nH]cn2)NC(=O)[C@H](CCC(=O)O)NC(=O)[C@H](C)NC(=O)[C@H](Cc2ccccc2)NC(=O)CNC(=O)[C@H](CCCNC(=N)N)NC(=O)[C@H](CO)NC(=O)[C@@H]2CCCN2C(=O)[C@H](CO)NC(=O)[C@H](CC(C)C)NC(C)=O)C(C)C)CSC2=C(SC[C@@H](C(=O)N[C@@H](CCC(=O)O)C(=O)N[C@@H](CC(N)=O)C(=O)N[C@@H](CCC(=O)O)C(=O)N[C@@H](CC(C)C)C(=O)N[C@@H](Cc3c[nH]c4ccccc34)C(=O)NCC(N)=O)NC(=O)[C@H](CC(C)C)NC1=O)C(=O)NC2=O` [N-Myc 61-89 T79C/L83C mal] (Ac-LSPSRGFAEHSSEPPSWVCEMLCENELWG-NH2; linker 19-23 via Maleimide(3,4-diyl)): 99 ± 2 µM. Take `CSCC[C@H](NC(=O)[C@H](CCC(=O)O)NC(=O)[C@@H](NC(=O)[C@H](CS)NC(=O)[C@H](Cc1c[nH]c2ccccc12)NC(=O)[C@H](CO)NC(=O)[C@@H]1CCCN1C(=O)[C@@H]1CCCN1C(=O)[C@H](CCC(=O)O)NC(=O)[C@H](CO)NC(=O)[C@H](CO)NC(=O)[C@H](Cc1c[nH]cn1)NC(=O)[C@H](CCC(=O)O)NC(=O)[C@H](C)NC(=O)[C@H](Cc1ccccc1)NC(=O)CNC(=O)[C@H](CCCNC(=N)N)NC(=O)[C@H](CO)NC(=O)[C@@H]1CCCN1C(=O)[C@H](CO)NC(=O)[C@H](CC(C)C)NC(C)=O)[C@@H](C)O)C(=O)N[C@@H](CS)C(=O)N[C@@H](CC(C)C)C(=O)N[C@@H](CCC(=O)O)C(=O)N[C@@H](CC(N)=O)C(=O)N[C@@H](CCC(=O)O)C(=O)N[C@@H](CC(C)C)C(=O)N[C@@H](Cc1c[nH]c2ccccc12)C(=O)NCC(N)=O` [N-Myc 61-89 V78C/L82C red] (Ac-LSPSRGFAEHSSEPPSWCTEMCLENELWG-NH2): in series [2] (25 mM Tris, mean ± SD, SD), the “MRE222 (mean residue ellipticity at 222 nm)” value was -1692 ± 70 deg cm^−1 dmol^−1 res^−1. In series [2] (from MRE222 by equation 7, 25 mM Tris), the “% Helicity (estimated)” value is 6 ± 1%. For `CSCC[C@H](NC(=O)[C@H](CCC(=O)O)NC(=O)[C@@H](NC(=O)[C@@H](NC(=O)[C@H](Cc1c[nH]c2ccccc12)NC(=O)[C@H](CO)NC(=O)[C@@H]1CCCN1C(=O)[C@@H]1CCCN1C(=O)[C@H](CCC(=O)O)NC(=O)[C@H](CO)NC(=O)[C@H](CO)NC(=O)[C@H](Cc1c[nH]cn1)NC(=O)[C@H](CCC(=O)O)NC(=O)[C@H](C)NC(=O)[C@H](Cc1ccccc1)NC(=O)CNC(=O)[C@H](CCCNC(=N)N)NC(=O)[C@H](CO)NC(=O)[C@@H]1CCCN1C(=O)[C@H](CO)NC(=O)[C@H](CC(C)C)NC(C)=O)C(C)C)[C@@H](C)O)C(=O)N[C@@H](CC(C)C)C(=O)N[C@H]1CSC2=C(SC[C@@H](C(=O)N[C@@H](Cc3c[nH]c4ccccc34)C(=O)NCC(N)=O)NC(=O)[C@H](CCC(=O)O)NC(=O)[C@H](CC(N)=O)NC(=O)[C@H](CCC(=O)O)NC1=O)C(=O)NC2=O` [N-Myc 61-89L83C/L87C mal] (Ac-LSPSRGFAEHSSEPPSWVTEMLCENECWG-NH2; linker 23-27 via Maleimide(3,4-diyl)), the IC50 in series [1] turned out to be 129 ± 3 µM.
